Results published in patent US9505709B2, “Compositions and methods relating to ionic salts of peptides” (Thetis Pharmaceuticals LLC, priority 2014, dated 2016).
Peptide text beside a SMILES is read from it.

Key:
Balb/C mice = assay: Ocular irritation after topical dosing to the cornea (hyperemia, squinting, discharge, lid swelling); format: in vivo; conditions: for Hyperemia: 3 μL drop in each eye four times daily for 3 days; for Squinting: topical to cornea
Experimental: In an embodiment where the ophthalmic formulation is an aqueous formulation, it has been determined in mice that certain formulations can be administered to the surface of the eye without producing irritation that would make them unsuitable for such application. Irritation parameters of TP-211-1, TP-212-1, TP-311-1 and TP-312-1 related to hyperemia, squinting, and discharge were determined in Balb/C mice. Mice were dosed topically to the cornea using a calibrated micropipette, with a 3 μL drop of treatment in each eye four times daily for 3 consecutive days at various concentrations.
TP-211-1 is Lysyl-lysine EPA. TP-212-1 is Lysyl-lysine bis-EPA. TP-311-1 is Lysyl-lysine DHA. TP-312-1 is Lysyl-lysine bis-DHA. The study drugs were prepared using phosphate buffered saline (PBS) to reach target concentrations ranging from 0.1% to 1.0%.
The animals were monitored for scratching at the eye or any other abnormal behavior post-dose. Ocular exams were conducted on Days 1 and 3 with use of a Micron III camera system to take high resolution videos of the right eye of each animal Clinical signs including but not limited to hyperemia, discharge, lid swelling, and squinting were evaluated by trained personnel who was masked as to group assignment. Each clinical sign was graded on a scale of 0-4, with the exception of lid swelling which was graded on a scale of 0-2. Scores were averaged and are expressed as the mean±SEM for each group. Statistical significance was assessed between the treatment arms and the vehicle group. Any significance is noted by asterisks (*=p<0.05, **=p<0.01, ***=p<0.001).

[1] = Stability analysis by 1H NMR of samples exposed to air and light; conditions: ambient temperature
Experimental: Stability analysis was performed using 1H NMR (400 MHz) with acetic acid-d4 at various time point (typically days 1, 14, 30 and 60) using samples exposed to air and light at ambient temperature (clear vials with no caps).

[2] = Oral pharmacokinetics (oral gavage), plasma free EPA or free DHA; format: in vivo, Sprague-Dawley rats; conditions: oral gavage 40 mg/kg, rat
Experimental: Experiments via Oral Gavage: Oral pharmacokinetic parameters of TP-212 (Lysyl-Lysine Bis-EPA), TP-312 (Lysyl-Lysine Bis-DHA), EPA-EE, EPA FFA and DHA FFA were determined in Sprague-Dawley rats. EPA-EE is 97% pure ethyl ester form of eicosapentaenoic acid. It is the principal polyunsaturated fatty acid in Vascepa, an Omega-3 compound approved in the U.S. for the treatment of severe hypertriglyceridemia. EPA FFA is 97% pure free fatty acid form of eicosapentaenoic acid and DHA FFA is 98% pure free fatty acid DHA. EPA FFA and DHA FFA are the two principal poly-unsaturated fatty acids in Epanova, an Omega-3 compound approved in the U.S. for the treatment of severe hypertriglyceridemia. The subject drugs were administered by oral gavage as an aqueous solution in de-ionized water to 6 Sprague-Dawley rats per group (3 males and 3 females). Rats were dosed at 40 mg/kg. Blood samples were obtained from each rat by jugular vein catheter. Samples were collected at pre-dose and at 0.25, 0.5, 1, 2, 4, 8, 12 and 18 hours post dose. Blood samples were centrifuged to separate red blood cells and the resulting plasma samples were analyzed for free EPA or free DHA. Free EPA or […] extracted from rat plasma with hexane at acidic condition without hydrolysis. Detection was by MS-MS monitoring of negative ion for EPA or DHA. Calculated pharmacokinetic values are mean values from 6 rats for each study drug.
For all figures and tables, the data are adjusted as follows for comparative purposes. First, the actual plasma levels are baseline adjusted. Thus, for each study arm, the pre-dose level (time=0) is subtracted from the actual plasma levels at each time point, with negative values adjusted to zero. Second, these baseline adjusted values are further adjusted to be molar dose equivalent on a comparative basis among the study arms with respect to EPA or DHA payload (i.e., as if equal amounts of free fatty acid EPA or DHA are administered in each study arm).

[3] = 0 h (pre-dose), molar dose equivalent, baseline adjusted
[4] = 0.25 h (15 min), molar dose equivalent, baseline adjusted
[5] = 0.5 h (30 min), molar dose equivalent, baseline adjusted
[6] = 1 h (60 min), molar dose equivalent, baseline adjusted
[7] = 2 h (120 min), molar dose equivalent, baseline adjusted
[8] = 4 h (240 min), molar dose equivalent, baseline adjusted
[9] = 8 h, molar dose equivalent, baseline adjusted
[10] = 12 h, molar dose equivalent, baseline adjusted
[11] = 18 h, molar dose equivalent, baseline adjusted
[12] = molar dose equivalent, baseline adjusted

CC/C=C\C/C=C\C/C=C\C/C=C\C/C=C\C/C=C\CCC(=O)O.NCCCC[C@H](NC(=O)[C@@H](N)CCCCN)C(=O)O [Compound 3, (L,L) Lysyl lysine DHA (mono)]
Hyperemia (Balb/C mice; 0.5% concentration in PBS): did not cause any increase in hyperemia or squinting throughout
Squinting (Balb/C mice; 0.5% concentration in PBS): did not cause any increase in hyperemia or squinting throughout
Hyperemia (Balb/C mice; 1.0% concentration in PBS): elevated hyperemia after the first dose administration
Squinting (Balb/C mice; 1.0% concentration in PBS): no increase in squinting levels
Concentration at which not irritating / well tolerated (Balb/C mice; topical to cornea four times daily for 3 days): less than 1.0%
Stability by NMR (amount of sample remaining relative to original sample) ([1]; Day 3): 1 (1 = >95%)
Stability by NMR (amount of sample remaining relative to original sample) ([1]; Day 14): 1 (1 = >95%)
Stability by NMR (amount of sample remaining relative to original sample) ([1]; Day 30): 1 (1 = >95%)
Stability by NMR (amount of sample remaining relative to original sample) ([1]; Day 60): 1 (1 = >95%)

CC/C=C\C/C=C\C/C=C\C/C=C\C/C=C\CCCC(=O)OCC [EPA ethyl ester]
Stability by NMR (amount of sample remaining relative to original sample) ([1]; Day 3): 1 (1 = >95%)
Stability by NMR (amount of sample remaining relative to original sample) ([1]; Day 14): 1-2
Stability by NMR (amount of sample remaining relative to original sample) ([1]; Day 30): 4 (4 = <50%)
Stability by NMR (amount of sample remaining relative to original sample) ([1]; Day 60): 4 (4 = <50%)
Tmax (free EPA) [2]: 4 h
Plasma level of free EPA [2, 3]: 0 ng/mL
Plasma level of free EPA [2, 4]: 300 ng/mL
Plasma level of free EPA [2, 5]: 500 ng/mL
Plasma level of free EPA [2, 6]: 700 ng/mL
Plasma level of free EPA [2, 7]: 800 ng/mL
Plasma level of free EPA [2, 8]: 1100 ng/mL
Plasma level of free EPA [2, 9]: 500 ng/mL
Plasma level of free EPA [2, 10]: 0 ng/mL
Plasma level of free EPA [2, 11]: 0 ng/mL
AUC 0-18 hrs (free EPA) [2, 12]: 7200 ng·h/mL
Cmax (free EPA) [2, 12]: 1100 ng/mL

CC/C=C\C/C=C\C/C=C\C/C=C\C/C=C\CCCC(=O)O [EPA-FFA, eicosapentaenoic acid]
Tmax ([2]; both sexes, Sprague-Dawley, plasma): 0.5 h
concentration at 0 h ([2]; both sexes, Sprague-Dawley, plasma, 0 h (pre-dose), molar dose equivalent, baseline adjusted, read-out: Plasma level of free EPA): 0 ng/mL
concentration at 0.25 h ([2]; both sexes, Sprague-Dawley, plasma, 0.25 h (15 min), molar dose equivalent, baseline adjusted, read-out: Plasma level of free EPA): 0 ng/mL
concentration at 0.5 h ([2]; both sexes, Sprague-Dawley, plasma, 0.5 h (30 min), molar dose equivalent, baseline adjusted, read-out: Plasma level of free EPA): 1300 ng/mL
concentration at 1 h ([2]; both sexes, Sprague-Dawley, plasma, 1 h (60 min), molar dose equivalent, baseline adjusted, read-out: Plasma level of free EPA): 500 ng/mL
concentration at 2 h ([2]; both sexes, Sprague-Dawley, plasma, 2 h (120 min), molar dose equivalent, baseline adjusted, read-out: Plasma level of free EPA): 800 ng/mL
concentration at 4 h ([2]; both sexes, Sprague-Dawley, plasma, 4 h (240 min), molar dose equivalent, baseline adjusted, read-out: Plasma level of free EPA): 1100 ng/mL
concentration at 8 h ([2]; both sexes, Sprague-Dawley, plasma, 8 h, molar dose equivalent, baseline adjusted, read-out: Plasma level of free EPA): 900 ng/mL
concentration at 12 h ([2]; both sexes, Sprague-Dawley, plasma, 12 h, molar dose equivalent, baseline adjusted, read-out: Plasma level of free EPA): 300 ng/mL
concentration at 18 h ([2]; both sexes, Sprague-Dawley, plasma, 18 h, molar dose equivalent, baseline adjusted, read-out: Plasma level of free EPA): 0 ng/mL
AUC 0-1 hrs (free EPA) [2, 12]: 600 ng·h/mL
AUC 0-4 hrs (free EPA) [2, 12]: 3100 ng·h/mL
AUC 0-18 hrs (free EPA) [2, 12]: 10500 ng·h/mL
Cmax (free EPA) [2, 12]: 1300 ng/mL

CCC=CCC=CCC=CCC=CCC=CCC=CCCC(=O)O.CCC=CCC=CCC=CCC=CCC=CCC=CCCC(=O)O.N=C(N)NCCCC(N)C(=O)NC(CCCCN)C(=O)O [Arginyl-lysine Bis-DHA]
Stability by NMR (amount of sample remaining relative to original sample) ([1]; Day 3): 1 (1 = >95%)
Stability by NMR (amount of sample remaining relative to original sample) ([1]; Day 14): 1 (1 = >95%)
Stability by NMR (amount of sample remaining relative to original sample) ([1]; Day 30): 1 (1 = >95%)
Stability by NMR (amount of sample remaining relative to original sample) ([1]; Day 60): 1 (1 = >95%)

CCC=CCC=CCC=CCC=CCC=CCC=CCCC(=O)O.CCC=CCC=CCC=CCC=CCC=CCC=CCCC(=O)O.N=C(N)NCCCC(N)C(=O)NC(CCCNC(=N)N)C(=O)O [Arginyl-arginine Bis-DHA]
Stability by NMR (amount of sample remaining relative to original sample) ([1]; Day 3): 1 (1 = >95%)
Stability by NMR (amount of sample remaining relative to original sample) ([1]; Day 14): 1 (1 = >95%)
Stability by NMR (amount of sample remaining relative to original sample) ([1]; Day 30): 1 (1 = >95%)
Stability by NMR (amount of sample remaining relative to original sample) ([1]; Day 60): 1 (1 = >95%)

CC/C=C\C/C=C\C/C=C\C/C=C\C/C=C\CCCC(=O)O.NCCCC[C@H](NC(=O)[C@@H](N)CCCCN)C(=O)O.O=C(O)c1cccnc1 [Compound 7, (L,L) Lysyl-lysine EPA niacin]
Stability by NMR (amount of sample remaining relative to original sample) ([1]; Day 3): 1 (1 = >95%)
Stability by NMR (amount of sample remaining relative to original sample) ([1]; Day 14): 1 (1 = >95%)
Stability by NMR (amount of sample remaining relative to original sample) ([1]; Day 30): 1 (1 = >95%)
Stability by NMR (amount of sample remaining relative to original sample) ([1]; Day 60): 1 (1 = >95%)

CCC=CCC=CCC=CCC=CCC=CCCCC(=O)O.CCC=CCC=CCC=CCC=CCC=CCCCC(=O)O.N=C(N)NCCCC(N)C(=O)NC(CCCCN)C(=O)O [Arginyl-lysine Bis-EPA]
Stability by NMR (amount of sample remaining relative to original sample) ([1]; Day 3): 1 (1 = >95%)
Stability by NMR (amount of sample remaining relative to original sample) ([1]; Day 14): 1 (1 = >95%)
Stability by NMR (amount of sample remaining relative to original sample) ([1]; Day 30): 1 (1 = >95%)
Stability by NMR (amount of sample remaining relative to original sample) ([1]; Day 60): 1 (1 = >95%)

CC/C=C\C/C=C\C/C=C\C/C=C\C/C=C\C/C=C\CCC(=O)O [DHA-FFA, DHA]
Tmax (free DHA) [2]: 4 h
Plasma level of free DHA [2, 3]: 0 ng/mL
Plasma level of free DHA [2, 4]: 0 ng/mL
Plasma level of free DHA [2, 5]: 1800 ng/mL
Plasma level of free DHA [2, 6]: 1800 ng/mL
Plasma level of free DHA [2, 7]: 2200 ng/mL
Plasma level of free DHA [2, 8]: 3400 ng/mL
Plasma level of free DHA [2, 9]: 1700 ng/mL
Plasma level of free DHA [2, 10]: 2100 ng/mL
Plasma level of free DHA [2, 11]: 1200 ng/mL
AUC 0-1 hrs (free DHA) [2, 12]: 1100 ng·h/mL
AUC 0-4 hrs (free DHA) [2, 12]: 8700 ng·h/mL
AUC 0-18 hrs (free DHA) [2, 12]: 36300 ng·h/mL
Cmax (free DHA) [2, 12]: 3400 ng/mL

CCC=CCC=CCC=CCC=CCC=CCCCC(=O)O.CCC=CCC=CCC=CCC=CCC=CCCCC(=O)O.N=C(N)NCCCC(N)C(=O)NC(CCCNC(=N)N)C(=O)O (stereo not drawn) [Arginyl-arginine Bis-EPA] (H-Arg-Arg-OH; configuration not given here)
Stability by NMR (amount of sample remaining relative to original sample) ([1]; Day 3): 1 (1 = >95%)
Stability by NMR (amount of sample remaining relative to original sample) ([1]; Day 14): 1 (1 = >95%)
Stability by NMR (amount of sample remaining relative to original sample) ([1]; Day 30): 1 (1 = >95%)
Stability by NMR (amount of sample remaining relative to original sample) ([1]; Day 60): 1 (1 = >95%)
